Laboratory results taken from paper PMC9241695, “Selective Metal Chelation by a Thiosemicarbazone Derivative Interferes with Mitochondrial Respiration and Ribosome Biogenesis in Candida albicans” (Microbiology Spectrum, 2022).
In brackets after ≈: the same amount, converted by molar mass.

Assays:
[1] = system: human bronchial epithelial cell line 16HBE; assay: Cytotoxicity testing (MTT); type: cell-based; conditions: ratio of IC50 against 16HBE to MIC80 against C. albicans SC5314
Method: (§1) h (for C. albicans, C. krusei, C. tropicalis, C. parapsilosis) or 48 h (for C. neoformans, A. fumigatus). The MIC was determined based on visible growth inhibition compared with the control. All experiments were performed in duplicate.
(§2) Cytotoxicity testing. The cell lines HK2 and 16HBE were used to evaluate the cytotoxicity of 19ak, 19k and 19t. Cells in DMEM containing 10% fetal bovine serum (Gibco) were seeded in 96-well tissue culture plates at a cell density of 1 × 10^4 cells/mL and incubated for 24 h to allow adhesion. The supernatant was then replaced with fresh DMEM containing various concentrations of 19ak, 19k and 19t. The plates were subsequently incubated for an additional 48 h at 37°C with 5% CO2, followed by the addition of 10 μL of MTT solution to each well and incubation at 37°C for 4 h.
(§3) The effects of the compounds on cell proliferation were detected by measuring the absorbance at 570 nm in a microplate reader (BioTek, VT, USA). Three independent experiments were conducted. […]

[2] = Cytotoxicity testing (MTT); type: cell-based, human; conditions: human, 48 h, MTT
Method: as §1, §2, §3

[3] = system: human renal epithelial cell line HK2; assay: Cytotoxicity testing (MTT); type: cell-based; conditions: ratio of IC50 against HK2 to MIC80 against C. albicans SC5314
Method: as §1, §2, §3

C. albicans SC5314 [4] = assay: Minimal fungicidal concentration (MFC); type: cell-based; conditions: Candida albicans, read-out: MFC against C. albicans SC5314
C. parapsilosis CP001 = assay: Microbroth dilution MIC80; type: cell-based, Candida parapsilosis; conditions: Lodderomyces parapsilosis, CP001
Source text: Compound library. The thiosemicarbazone derivatives Triapine and COTI-2 were purchased from Med Chem Express (MCE). The other 87 thiosemicarbazones used in this study were previously synthesized by our collaborators (1, 2). Their structures are shown in Table 1 and Table S1 to help the reader clearly understand the relationship between structure and activity.
Strains and culture conditions. Clinically derived C. albicans isolates, including G5, F5, and Gu5, were kindly provided by Professor Joachim Morschhäuser of the University of Würzburg. Other clinical C. albicans isolates were kindly donated by Professor Qingguo Qi of Shandong University and Qianfoshan Hospital of Shandong Province Other Candida strains were obtained from Jinan Central Hospital.
The zap1 mutant and its complemented strain were kindly provided by Professor Aaron P. Mitchell of Carnegie Mellon University (3). The C. neoformans strains used in this study was kindly donated by Professor Guojian Liao of Southwest University and A. fumigatus strain used in this study was provided by Professor Ling Lu of Nanjing Normal University. Before in vitro and in vivo experiments, all C. albicans strains were grown on YPD agar plates. After culturing at 30°C for 24 h, colonies of each strain were cultured in liquid YPD medium at 30°C with continuous shaking […]
Antifungal susceptibility testing. To determine in vitro antifungal activities, the microbroth dilution method was carried out in RPMI1640 medium according to the guidelines of the Clinical and Laboratory Standards Institute (4, 5). The initial concentration in RPMI1640 medium was 1 × 10^3 CFU/mL for the C. albicans and C. neoformans suspensions but 1 × 10^4 CFU/mL for A. fumigatus. The range of final drug concentrations was 0.0156–64 μg/mL. The plates were incubated at35°C for 24 […]
h (for C. albicans, C. krusei, C. tropicalis, C. parapsilosis) or 48 h (for C. neoformans, A. fumigatus). The MIC was determined based on visible growth inhibition compared with the control. All experiments were performed in duplicate. […]

C. albicans SC5314 cells [5] = assay: Intracellular free iron levels using FeRhoNox-1; type: cell-based, Candida albicans; conditions: 0.5 μg/mL, 6 h, compared with untreated cells
Method: FeRhoNox-1 is a commercially available fluorescent probe that specifically binds Fe^2+ and is used to measure intracellular Fe^2 + content. C. albicans SC5314 cells cultured overnight were diluted to roughly 1 × 10^6 cells/mL in RPMI 1640 medium and challenged with various doses of 19ak for 6 h. Next, the cells were fixed with 4% paraformaldehyde for 1 h. After washing three times with PBS, the cells were stained with 5 μM FeRhoNox-1 for 30 min and analyzed by flow cytometry (Becton, Dickinson, CA, USA). Mammalian cells culture is according to the method described in Cytotoxicity testing which was described in Supplemental material in detail. After 12 h of treatment with different concentrations of 19ak, the supernatant was discarded and washed three times with PBS. Cells were collected after staining with FeRhoNox-1 for 30 min in the dark, and the fluorescence intensity of stained cells was analyzed by flow cytometry.

C. albicans SC5314 [6] = assay: Antifungal susceptibility testing, microbroth dilution MIC; type: cell-based; conditions: Candida albicans, SC5314; C. albicans wild-type strain; RPMI1640, 35°C, 24 h; read-out: MIC (μg/mL) against fungi SC5314
In short: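 CLSI microbroth dilution in RPMI1640, final drug range 0.0156–64 μg/mL. Inocula 1 × 10^3 CFU/mL for C. albicans and C. neoformans, 1 × 10^4 CFU/mL for A. fumigatus; 35°C for 24 h (C. albicans) or 48 h (C. neoformans, A. fumigatus). MIC read as visible growth inhibition versus control, in duplicate.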

C. albicans SC5314 cells [7] = assay: Intracellular labile zinc levels using Zinbo-5; type: cell-based, Candida albicans; conditions: 6 h
Method: C. albicans SC5314 cells grown overnight were pelleted, washed three times with PBS buffer, and resuspended to obtain an OD600 of 2.0. Next, the cells were incubated with various concentrations of 19ak in 96-well plates at 30°C for 6 h, followed by incubation with 10 μM Zinbo-5 for 30 min. Finally, fluorescence was measured in a microplate reader (excitation at 355 nm, emission at 485 nm). Similar approach was used in detection of intracellular zinc levels of mammalian cells.

C. albicans SC5314 cells [8] = assay: ROS production assay (DCFH-DA); type: cell-based, Candida albicans; conditions: 6 h, compared with the control
Method: ROS production assay. Logarithmic-phase C. albicans SC5314 cells (1 × 10^6 cells/mL in RPMI1640 medium) were incubated in the presence or absence of 19ak for 6 h, followed by incubation with 2′,7′-dichlorofluorescein diacetate (DCFH-DA) in the dark for 30 min. The fluorescence intensity was then measured by flow cytometry, and the data were analyzed with Win MDI 2.9 software. […]

C/C(=N\NC(=S)N(C)C)c1ccccn1 [Compound 19ak]
Selectivity index 16HBE [1]: 55.78
IC50 at 48 h ([2]; 16HBE cells (bronchial epithelial cell line), 16HBE cells): 6.97 µg/mL (≈ 31.4 µM)
IC50 at 48 h ([2]; HK2 cells (renal epithelial cell line), HK2 cells): 26.8 µg/mL (≈ 121 µM)
Selectivity index HK2 [3]: 214.32
MFC (C. albicans SC5314 [4]): 64 µg/mL (≈ 288 µM)
MIC80 (C. parapsilosis CP001): 0.125 µg/mL (≈ 0.562 µM)
Intracellular labile ferrous ions (FeRhoNox-1) (C. albicans SC5314 cells [5]): obvious drop
MIC (C. albicans SC5314 [6]): 0.125 µg/mL (≈ 0.562 µM)
Labile zinc ions (Zinbo-5 fluorescence) (C. albicans SC5314 cells [7]; 0.125 μg/mL): decreased
Reduction of intracellular zinc ions (C. albicans SC5314 cells [7]; 1 μg/mL): approximately 59.6%
ROS formation (DCFH-DA) (C. albicans SC5314 cells [8]): decreased ROS
